# In US20080051449A1, “PREPARATION OF ATORVASTATIN CALCIUM FORM VI AND COMPOSITIONS THEREOF” (priority 2006, published 2008):
# What was measured:
# Assay type in all cases: physicochemical
# [1] = Stability study at 40° C. and 75% relative humidity; conditions: 40° C./75% RH
# Source text: Stability packaging: The sample was packed in a clear polyethylene bag and flushed with nitrogen, then tied and placed in a black polyethylene bag along with silica gel and tied. Finally the black bag was placed in a triple laminated bag and sealed with a liner sealer.
# [2] = Particle size distribution by Malvern particle size analyzer; conditions: dispersant 0.7% dioctyl sodium sulfosuccinate in n-hexane
# Source text: A particle size distribution of D50 as used herein is defined as the distribution where 50 volume percent of the particles are smaller than that size given. A particle size distribution of D10 as used herein is defined as the distribution where 10 volume percent of the particles are smaller than that size given. A particle size distribution of D90 as used herein is defined as the distribution where 90 volume percent of the particles are smaller than that size given. The D50 value is considered to be a “mean particle size.” Particle size can be determined using commercially available instrumentation, such as that sold by Malvern Instruments Ltd. of Malvern, Worcestershire, United Kingdom and using a laser diffraction principle.
# The particle size distribution of atorvastatin calcium Form VI was determined using a Malvern® particle size analyzer, and 0.7% of dioctyl sodium sulfosuccinate in n-hexane was used as the dispersant.
# [3] = Stability study during storage at 25° C. and 60% relative humidity; conditions: 25° C./60% RH
# Procedure: Stability Study of Atorvastatin Calcium Crystalline Form VI (Example 3) During Storage at 25° C. and 60% Relative Humidity.
# Stability packaging: same as Example 5.
# [4] = Stability study under various stress conditions in an open container
# Source text: Stability Study of Atorvastatin Calcium Crystalline Form VI (Example 3) Subject to Various Stress Conditions in an Open Container
# [5] = Accelerated Stability (40° C. and 75% relative humidity) 24 hours
# [6] = Compression (2000 kg/cm^2) for 1 hour
# [7] = UV Photostability λ = 254 nm, 24 hours
substance,measurement,setting,value
"[R—(R*,R*)]-2-(4-fluorophenyl)-β,δ-dihydroxy-5-(1-methylethyl)-3-phenyl-4[(phenyl amino) carbonyl]-IH-pyrrole-1-heptanoic acid, calcium salt (2:1) trihydrate [Atorvastatin calcium Form VI (Example 3)]",Assay by HPLC,[1]; 1 month,99.2 % w/w
same,Moisture Content,[1]; 1 month,1.4 % w/w
same,Total Impurities by HPLC,[1]; 1 month,0.14 % w/w
same,Assay by HPLC,[1]; 3 months,99.2 % w/w
same,Moisture Content,[1]; 3 months,1.6 % w/w
same,Total Impurities by HPLC,[1]; 3 months,0.15 % w/w
same,Assay by HPLC,[1]; 6 months,99.2 % w/w
same,Moisture Content,[1]; 6 months,1.6 % w/w
same,Total Impurities by HPLC,[1]; 6 months,0.24 % w/w
same,Assay by HPLC,[1]; Initial,99.1 % w/w
same,Moisture Content,[1]; Initial,1.4 % w/w
same,Total Impurities by HPLC,[1]; Initial,0.18 % w/w
same,Particle Size D10,[2],1.32 μm
same,Particle Size D50,[2],5.22 μm
same,Particle Size D90,[2],24.54 μm
same,Assay by HPLC,[3]; 1 month,99.1 % w/w
same,Moisture Content,[3]; 1 month,1.5 % w/w
same,Total Impurities by HPLC,[3]; 1 month,0.16 % w/w
same,Assay by HPLC,[3]; 3 months,99.1 % w/w
same,Moisture Content,[3]; 3 months,1.7 % w/w
same,Total Impurities by HPLC,[3]; 3 months,0.14 % w/w
same,Assay by HPLC,[3]; 6 months,99.3 % w/w
same,Moisture Content,[3]; 6 months,1.5 % w/w
same,Total Impurities by HPLC,[3]; 6 months,0.23 % w/w
same,Assay by HPLC,[3]; Initial,99.1 % w/w
same,Moisture Content,[3]; Initial,1.4 % w/w
same,Total Impurities by HPLC,[3]; Initial,0.18 % w/w
same,Total Impurities,[4]; [5],0.29 % w/w
same,Water by KF,[4]; [5],1.85 % w/w
same,Total Impurities,[4]; [6],0.32 % w/w
same,Water by KF,[4]; [6],1.68 % w/w
same,Total Impurities,[4]; Initial analysis,0.26 % w/w
same,Water by KF,[4]; Initial analysis,1.60 % w/w
same,Total Impurities,[4]; Thermal (90° C.) 24 hours,0.7 % w/w
same,Water by KF,[4]; Thermal (90° C.) 24 hours,1.04 % w/w
same,Total Impurities,[4]; [7],0.27 % w/w
same,Water by KF,[4]; [7],1.54 % w/w
